The text below walks through data of ChEMBL document CHEMBL5390211, “Discovery of N-Arylsulfonyl-Indole-2-Carboxamide Derivatives as Galectin-3 and Galectin-8 C-Terminal Domain Inhibitors” (ACS Med Chem Lett, 2023).

For data set [1], the target named is T1, Galectin-8 (Homo sapiens, UniProt O00214).
T1 sequence (O00214 whole entry): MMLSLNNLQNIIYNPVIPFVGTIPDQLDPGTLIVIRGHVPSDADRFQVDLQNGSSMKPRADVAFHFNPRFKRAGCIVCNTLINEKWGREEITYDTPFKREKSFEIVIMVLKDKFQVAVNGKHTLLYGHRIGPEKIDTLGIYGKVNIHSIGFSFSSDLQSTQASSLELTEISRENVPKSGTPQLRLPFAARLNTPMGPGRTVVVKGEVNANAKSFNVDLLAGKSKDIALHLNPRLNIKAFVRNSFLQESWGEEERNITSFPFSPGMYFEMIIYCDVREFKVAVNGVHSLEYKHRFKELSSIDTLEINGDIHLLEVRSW
Description: Binding affinity to C-terminal domain human Gal-8 expressed in Escherichia coli BL21 (DE3) cells by competitive fluorescence polarization assay.

In data set [2] the target is T2, Galectin-3 (Homo sapiens, UniProt P17931). Kind of data set: Binding affinity to human Gal-3 expressed in Escherichia coli BL21 (DE3) cells by competitive fluorescence polarization assay.
Data set [3] concerns the target T2, Galectin-3. Kind of data set: Binding affinity to human Gal-3 expressed in Escherichia coli BL21 (DE3) cells by isothermal titration calorimetry analysis.
In data set [4] the target is T2, Galectin-3.
Description: Binding affinity to human Gal-3 expressed in Escherichia coli BL21 (DE3) cells assessed as change in entropy by isothermal titration calorimetry analysis
The target of data set [5] is T1, Galectin-8. Description: Binding affinity to N-terminal domain human Gal-8 expressed in Escherichia coli BL21 (DE3) cells by competitive fluorescence polarization assay.
Data set [6] deals with T2, Galectin-3. The source holds these as a separate data set.
Description: Binding affinity to human Gal-3 expressed in Escherichia coli BL21 (DE3) cells assessed as change in gibbs free energy by isothermal titration calorimetry analysis
The target of data set [7] is T3, Galectin-8 (Homo sapiens) (UniProt O00214).
T3 sequence (whole entry): T1 sequence (O00214 whole entry)
Description: Binding affinity to C-terminal domain human Gal-8 expressed in Escherichia coli BL21 (DE3) cells assessed as change in entropy by isothermal titration calorimetry analysis

Data set [8] deals with T1, Galectin-8. Kind of data set: Binding affinity to C-terminal domain human Gal-8 expressed in Escherichia coli BL21 (DE3) cells by isothermal titration calorimetry analysis.
The target of data set [9] is T3, Galectin-8 (Homo sapiens). This is another data set of the same source.
Description: Binding affinity to C-terminal domain human Gal-8 expressed in Escherichia coli BL21 (DE3) cells assessed as change in enthalpy by isothermal titration calorimetry analysis
Data set [10] has as its system MRC5. Description: Inhibition of cell migration in human MRC5 cells assessed as reduction in would closure at 1 uM incubated for 48 hrs by Giemsa staining based microscopic analysis relative to control. In kind it is toxicity.
Data set [11] has as its target Galectin-1 (Homo sapiens, UniProt P09382). Kind of data set: Binding affinity to human Gal-1 expressed in Escherichia coli BL21 (DE3) by competitive fluorescence polarization assay.
Data set [12] is described as follows: Cytotoxicity against human MRC5 cells assessed as cell viability at 10 uM incubated for 24 hrs by MTT assay relative to control. The data set is classed as toxicity, cell-based. Conditions: read-out: Activity.
Data set [13] is described as follows: Cytotoxicity against human MRC5 cells assessed as cell viability at 1 uM incubated for 24 hrs by MTT assay relative to control. In kind it is toxicity, cell-based. Conditions: read-out: Activity.
The target of data set [14] is T2, Galectin-3. This is another data set of the same source.
Description: Binding affinity to human Gal-3 expressed in Escherichia coli BL21 (DE3) cells assessed as change in enthalpy by isothermal titration calorimetry analysis
The target in data set [15] is T3, Galectin-8 (Homo sapiens). The source holds these as a separate data set.
Description: Binding affinity to C-terminal domain human Gal-8 expressed in Escherichia coli BL21 (DE3) cells assessed as change in gibbs free energy by isothermal titration calorimetry analysis

Sequence of Galectin-1 (P09382 whole entry): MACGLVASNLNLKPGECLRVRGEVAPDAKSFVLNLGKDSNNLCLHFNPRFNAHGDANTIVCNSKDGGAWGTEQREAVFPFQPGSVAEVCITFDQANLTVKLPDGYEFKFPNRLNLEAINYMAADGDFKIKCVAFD
T2 sequence (P17931 whole entry): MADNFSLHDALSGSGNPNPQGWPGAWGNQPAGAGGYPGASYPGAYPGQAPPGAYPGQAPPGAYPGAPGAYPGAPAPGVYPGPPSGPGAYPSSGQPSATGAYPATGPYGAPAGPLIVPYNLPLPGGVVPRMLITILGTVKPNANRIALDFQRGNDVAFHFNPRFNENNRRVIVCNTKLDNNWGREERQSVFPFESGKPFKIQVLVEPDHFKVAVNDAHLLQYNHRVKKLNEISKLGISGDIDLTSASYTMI

With `O=C(O)c1ccc(S(=O)(=O)NC(=O)c2cc3cc(Oc4ccc(Cl)c(Cl)c4)ccc3[nH]2)cc1`, the results for the Kd in data set [1] and in [2] were 73 µM and 119 µM, respectively.
On the same counts, the results for `O=C(NS(=O)(=O)c1ccc([N+](=O)[O-])cc1)c1cc2cc(Oc3ccc(Cl)c(Cl)c3)ccc2[nH]1` are 19.2 µM and 30 µM.
On the same counts, the results for `O=C(NS(=O)(=O)c1ccc(Cl)cc1Cl)c1cc2cc(Oc3ccc(F)cc3)ccc2[nH]1` are 57 µM and 121 µM.
On the same counts, the results for `O=C(NS(=O)(=O)Cc1noc2ccccc12)c1cc2cc(Oc3ccc(Cl)c(Cl)c3)ccc2[nH]1` are 24.6 µM and 321 µM.
With `O=C(NS(=O)(=O)c1ccccn1)c1cc2cc(Oc3ccc(Cl)c(Cl)c3)ccc2[nH]1`, the dissociation constant (Kd) in data set [1] stood at 41.8 µM; in data set [2], 210 µM.
On the same counts, the results for `O=C(NS(=O)(=O)c1cc(F)c(F)c(F)c1)c1cc2cc(Oc3ccc(Cl)c(Cl)c3)ccc2[nH]1` are 14.9 µM and 33 µM.
For the compound `O=C(NS(=O)(=O)c1ccc2ncsc2c1)c1cc2cc(Oc3ccc(Cl)c(Cl)c3)ccc2[nH]1`, the Kd in data set [1] worked out at 8.3 µM; in data set [3], 4.12 µM; in data set [5], 210 µM; in [8], 6.04 µM; in data set [11], 107 µM; in data set [2] it was 7.6 µM. For the same compound, the -TdeltaS in [4] was -8.63 kcal/mol; in data set [7] it was -12 kcal/mol. The deltaG in [6] is -7.35 kcal/mol; in data set [15], -7.12 kcal/mol. Besides, the deltaH in data set [9] is 4.91 kcal/mol; in [14] it was 1.28 kcal/mol. In addition, the inhibition at 1 µM in [10] amounted to 14%. In [12], the viability at 24 h, 10 µM amounted to 66%. In addition, in [13], the viability at 24 h, 1 µM turned out to be 95%.
In the case of `O=C(NS(=O)(=O)c1cc(Cl)sc1Cl)c1cc2cc(Oc3ccc(Cl)c(Cl)c3)ccc2[nH]1`, the dissociation constant Kd in data set [1] is 17.3 µM; in [2] it was 21.9 µM.
On the same counts, the results for `O=C(NS(=O)(=O)c1ccc(F)cc1S(=O)(=O)C(F)(F)F)c1cc2cc(Oc3ccc(Cl)c(Cl)c3)ccc2[nH]1` are 16 µM and 32.3 µM.
On to `Cc1nc(Cl)sc1S(=O)(=O)NC(=O)c1cc2cc(Oc3ccc(Cl)c(Cl)c3)ccc2[nH]1`, for which the dissociation constant Kd in data set [1] was 20.3 µM; in data set [2] it was 31 µM.
Take `CC(C)c1ccc(Oc2ccc3cc(C(=O)NS(=O)(=O)c4ccc(Cl)cc4Cl)[nH]c3c2)cc1`: the dissociation constant Kd in [2] is 784 µM.
As for `O=C(NS(=O)(=O)c1csc2ccccc12)c1cc2cc(Oc3ccc(Cl)c(Cl)c3)ccc2[nH]1`, the results for the Kd in [1] and in data set [2] were 8.2 µM and 10.6 µM, respectively.
For the compound `O=C(NS(=O)(=O)c1ccc(Cl)cc1Cl)c1cc2ccc(Oc3ccc(F)cc3)cc2[nH]1`, the results for the equilibrium dissociation constant (Kd) in [1] and in data set [2] were 76.2 µM and 303 µM, respectively.
Take `O=C(NS(=O)(=O)c1cc(Cl)c(Cl)s1)c1cc2cc(Oc3ccc(Cl)cc3Cl)ccc2[nH]1`: the Kd is 19.3 µM in data set [1] and 22.7 µM in data set [2].
On the same counts, the results for `O=C(NS(=O)(=O)c1ccccc1Cl)c1cc2cc(Oc3ccc(Cl)c(Cl)c3)ccc2[nH]1` are 16.4 µM and 24.9 µM.
With `CCOC(=O)c1ccc(S(=O)(=O)NC(=O)c2cc3cc(Oc4ccc(Cl)c(Cl)c4)ccc3[nH]2)cc1`, the Kd was 17.5 µM in [1], 228 µM in [5], 118 µM in [11] and 17.1 µM in [2].
On to `O=C(NS(=O)(=O)c1sc(Cl)cc1Cc1ccccc1)c1cc2cc(Oc3ccc(Cl)c(Cl)c3)ccc2[nH]1`, for which the values for the Kd in [1], in data set [11] and in [2] were 5.6 µM, 96.1 µM and 35.9 µM, respectively.
With `O=C(NS(=O)(=O)c1cc(Cl)c(Cl)s1)c1cc2cc(Oc3cccc(Cl)c3Br)ccc2[nH]1`, the Kd in data set [1] stood at 19.2 µM; in data set [2], 27.3 µM.
On the same counts, the results for `O=C(NS(=O)(=O)c1cc(Cl)c(Cl)s1)c1cc2cc(Oc3ccc(Br)c(F)c3)ccc2[nH]1` are 8 µM and 14.3 µM.
In [2], `CCOC(=O)c1ccc(S(=O)(=O)N(C)C(=O)c2cc3cc(Oc4ccc(Cl)c(Cl)c4)ccc3n2C)cc1` came in with a Kd of 363 µM.
As to `O=C(NS(=O)(=O)c1ccc(Cl)cc1)c1cc2cc(Oc3ccc(Cl)c(Cl)c3)ccc2[nH]1`, the figures for the dissociation constant Kd in [1] and in data set [2] were 18.1 µM and 80.9 µM, respectively.
For the compound `O=C(NS(=O)(=O)c1ccc(Cl)cc1Cl)c1cc2cc(Oc3ccc(Cl)c(Cl)c3)ccc2[nH]1`, the Kd in [1] was 9.4 µM; in data set [5] it was > 300 µM; in [11], 43.7 µM; in data set [2] it was 16 µM.
`O=C(NS(=O)(=O)c1cc(Cl)c(Cl)s1)c1cc2cc(Oc3ccc(Cl)cn3)ccc2[nH]1`: the values for the Kd in data set [1] and in [2] were > 300 µM and 212 µM, respectively.
On the same counts, the results for `O=C(NS(=O)(=O)c1cc(Cl)c(Cl)s1)c1cc2cc(Oc3ccc(Br)cc3F)ccc2[nH]1` are 7.3 µM and 27.1 µM.
As for `O=C(NS(=O)(=O)c1cc(Cl)c(Cl)s1)c1cc2cc(Oc3ccc(Cl)cc3Br)ccc2[nH]1`, the Kd in [1] amounted to 14.1 µM; in [2], 24.9 µM.
Take `O=C(NS(=O)(=O)c1cc(Cl)c(Cl)s1)c1cc2cc(Oc3ccc(Cl)c(Cl)c3)ccc2o1`: the Kd was 9.6 µM in data set [1], > 500 µM in [11] and 30.5 µM in [2].
`O=C(NS(=O)(=O)c1ccc(OC(F)(F)F)cc1)c1cc2cc(Oc3ccc(Cl)c(Cl)c3)ccc2[nH]1`: the equilibrium dissociation constant (Kd) came to 18.5 µM in data set [1] and 15.5 µM in data set [2].
On the same counts, the results for `O=C(NS(=O)(=O)c1cc(Cl)c(Cl)s1)c1cc2cc(Oc3ccc(Br)c(Cl)c3)ccc2[nH]1` are 9.4 µM and 23.7 µM.
On the same counts, the results for `O=C(NS(=O)(=O)c1ccc(Cl)cc1Cl)c1cc2c(Oc3ccc(F)cc3)cccc2[nH]1` are 253 µM and 224 µM.
On the same counts, the results for `O=C(NS(=O)(=O)c1ccccc1)c1cc2cc(Oc3ccc(Cl)c(Cl)c3)ccc2[nH]1` are 18.7 µM and 37.4 µM.
Turning to `O=C(NS(=O)(=O)c1cc(Cl)c(Cl)s1)c1cc2cc(Oc3ccc(Cl)c(Cl)c3)ccc2[nH]1`, the Kd was 10.9 µM in [1], > 300 µM in [5], 70.8 µM in data set [11] and 20 µM in data set [2].
Consider `O=C(NS(=O)(=O)c1ccn(Cl)n1)c1cc2cc(Oc3ccc(Cl)c(Cl)c3)ccc2[nH]1`, for which the dissociation constant Kd in data set [1] stood at 57 µM; in [2], 76.9 µM.
Take `O=C(NS(=O)(=O)c1ccc2oc(=O)ccc2c1)c1cc2cc(Oc3ccc(Cl)c(Cl)c3)ccc2[nH]1`: the equilibrium dissociation constant (Kd) in data set [1] was 18.7 µM; in data set [3], 11 µM; in [5], > 300 µM; in data set [8] it was 2.01 µM; in [11] it was 86.9 µM; in [2], 10 µM. The figures for the -TdeltaS in data set [4] and in [7] were -2.94 kcal/mol and -6.76 kcal/mol, respectively. Besides, the deltaG was -6.77 kcal/mol in data set [6] and -7.77 kcal/mol in data set [15]. The deltaH in [9] was -1.01 kcal/mol; in [14], -3.82 kcal/mol.
Turning to `CCOC(=O)c1ccc(S(=O)(=O)NC(=O)c2cc3cc(Oc4ccc(Cl)c(Cl)c4)ccc3n2C)cc1`, the Kd in data set [1] is 16.1 µM; in data set [5] it was > 300 µM; in [11], > 500 µM; in [2] it was 36.5 µM.
For the compound `O=C(NS(=O)(=O)c1sccc1Cc1ccccc1)c1cc2cc(Oc3ccc(Cl)c(Cl)c3)ccc2[nH]1`, the dissociation constant (Kd) in data set [1] amounted to 12.5 µM; in data set [3] it was 12.8 µM; in data set [5] it was 203 µM; in data set [8] it was 2.06 µM; in [11] it was 138 µM; in data set [2] it was 22.7 µM. In addition, the -TdeltaS in data set [4] is -1.94 kcal/mol; in data set [7], -5.47 kcal/mol. Also, the deltaG is -6.68 kcal/mol in data set [6] and -7.76 kcal/mol in data set [15]. Moreover, the deltaH in data set [9] was -2.29 kcal/mol; in [14], -4.74 kcal/mol. Further, the inhibition at 1 µM in data set [10] came out at 21%. The viability at 24 h, 10 µM in data set [12] came to 99%. Besides, in data set [13], the viability at 24 h, 1 µM was 97%.
In the case of `COc1cccc(S(=O)(=O)NC(=O)c2cc3cc(Oc4ccc(Cl)c(Cl)c4)ccc3[nH]2)c1`, the equilibrium dissociation constant (Kd) in data set [1] turned out to be 17.7 µM; in data set [2], 39.2 µM.
On the same counts, the results for `Cc1noc(C)c1S(=O)(=O)NC(=O)c1cc2cc(Oc3ccc(Cl)c(Cl)c3)ccc2[nH]1` are 22.9 µM and 74.2 µM.
On the same counts, the results for `O=C(NS(=O)(=O)c1ccc2c(c1)OCC2)c1cc2cc(Oc3ccc(Cl)c(Cl)c3)ccc2[nH]1` are 15.5 µM and 20.1 µM.
